# Experimental data reported in patent publication US5981562A, “Inhibitors of farnesyl-protein transferase” (Merck & Co., Inc., priority 1997, dated 1999).
# Where a name gives a salt, the structure may show the parent alone.
# Target: T1, human FPTase (Homo sapiens, UniProt P49354+P49356)
# T1 construct: made in house
# Assay: In vitro inhibition of human farnesyl-protein transferase
# Assay type: biochemical
# Settings: [3H]-FPP, 100 nM Ras-CVIM, 30 min, read-out: IC50 against human FPTase
compound,measurement,value
"CC(=O)N(CCNc1cccc(Cl)c1)Cc1cncn1Cc1ccc(C#N)cc1 [Example 1, N-[1-(4-cyanobenzyl)-5-imidazolylmethyl]-N-[2-((3-chlorophenyl)amino)ethyl]acetamide dihydrochloride]",IC50,< 10 µM
